Results on two compounds are retold here after PMC9293634, “Conformational flexibility in carbapenem hydrolysis drives substrate specificity of the class D carbapenemase OXA-24/40” (The Journal of Biological Chemistry, 2022).

For experiment [1], the target named is T1, OXA-24/40 (Acinetobacter baumannii, UniProt Q8RLA6, K84D).
T1 construct: gene blaOXA-33
The experiment in a line: X-ray crystal structure ([…] Å), intact β-lactam. Format: binding.

Experiment [2] addresses T1, OXA-24/40. The experiment in a line: X-ray crystal structure of acyl-enzyme ([…] Å). Format: binding.

T1 sequence (Q8RLA6 32-275 K84D): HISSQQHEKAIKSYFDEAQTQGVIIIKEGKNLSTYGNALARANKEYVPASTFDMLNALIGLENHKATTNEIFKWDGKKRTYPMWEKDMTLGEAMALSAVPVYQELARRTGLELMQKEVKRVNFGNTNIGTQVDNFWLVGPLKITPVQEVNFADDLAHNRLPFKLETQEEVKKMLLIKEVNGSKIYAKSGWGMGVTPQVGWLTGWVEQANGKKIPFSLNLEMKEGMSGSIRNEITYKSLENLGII

Turning to `C[C@@H](O)[C@H]1C(=O)N2C(C(=O)O)=C(S[C@@H]3CN[C@H](C(=O)Nc4cccc(C(=O)O)c4)C3)[C@H](C)[C@H]12` [ertapenem], the “X-ray crystal structure (2.58 Å), intact β-lactam” value in experiment [1] is reported as “In the K84D–ertapenem structure, ertapenem is bound as an intact β-lactam, yet in an unproductive binding mode”. Turning to `C[C@@H](O)[C@H]1C(=O)N2C(C(=O)O)=C(SCCN=CN)C[C@H]12` [imipenem], the “X-ray crystal structure of acyl-enzyme (2.28 Å)” value in experiment [2] is listed as “A predominant conformation for imipenem was observed in the K84D complex”.
